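Tested at 5 concentrations; 48 h exposure; 96-well plates; endpoints linearly interpolated, else capped at highest concentration. TGI marks complete inhibition of growth.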
Legend:
Assay in all cases: inhibition of tumour cell growth, NCI panel, 48 h
786-0 renal = test system: 786-0 renal
A498 renal = test system: A498 renal
ACHN renal = test system: ACHN renal
CCRF-CEM leukemia = test system: CCRF-CEM leukemia
COLO 205 colon = test system: COLO 205 colon
HCC-2998 colon = test system: HCC-2998 colon
HL-60(TB) leukemia = test system: HL-60(TB) leukemia
HS 578T breast = test system: HS 578T breast
M14 melanoma = test system: M14 melanoma
NCI-H23 lung = test system: NCI-H23 lung
NCI/ADR-RES ovarian = test system: NCI/ADR-RES ovarian
OVCAR-3 ovarian = test system: OVCAR-3 ovarian
OVCAR-8 ovarian = test system: OVCAR-8 ovarian
SF-295 CNS = test system: SF-295 CNS
SK-MEL-5 melanoma = test system: SK-MEL-5 melanoma
SN12C renal = test system: SN12C renal
SNB-75 CNS = test system: SNB-75 CNS
SW-620 colon = test system: SW-620 colon
UO-31 renal = test system: UO-31 renal

| Structure (SMILES) | TGI (786-0 renal) | TGI (A498 renal) | TGI (ACHN renal) | TGI (CCRF-CEM leukemia) | TGI (COLO 205 colon) | TGI (HCC-2998 colon) | TGI (HL-60(TB) leukemia) | TGI (HS 578T breast) | TGI (M14 melanoma) | TGI (NCI-H23 lung) | TGI (NCI/ADR-RES ovarian) | TGI (OVCAR-3 ovarian) | TGI (OVCAR-8 ovarian) | TGI (SF-295 CNS) | TGI (SK-MEL-5 melanoma) | TGI (SN12C renal) | TGI (SNB-75 CNS) | TGI (SW-620 colon) | TGI (UO-31 renal) |
| --- | --- | --- | --- | --- | --- | --- | --- | --- | --- | --- | --- | --- | --- | --- | --- | --- | --- | --- | --- |
| CCCCCCCCCCCCCCCCCCNC(=O)C(N)Cc1ccc(OCc2ccccc2)cn1 (configuration not stated) | 41.6 µM | 35.4 µM | 56.4 µM | 78.9 µM | 28.8 µM | 24.2 µM | 37.1 µM | 51.1 µM | 33.3 µM | 31.7 µM | 38.4 µM | 49.6 µM | 37.3 µM | 59.1 µM | 31.9 µM | 49.3 µM | 47.4 µM | 59.4 µM | 32.5 µM |
| Cc1ccc2c(c1)[nH]c(=S)n2/C=C1\C(=O)Oc2ccccc2C1=O | > 100 µM | > 100 µM | > 100 µM | > 100 µM | > 100 µM | > 100 µM | > 100 µM | > 100 µM | > 100 µM | > 100 µM | > 100 µM | > 100 µM | > 100 µM | > 100 µM | > 100 µM | > 100 µM | > 100 µM | > 100 µM | > 100 µM |
| COC(=O)[C@@H]1CN(C(C)=O)C(=O)N1 | > 100 µM | > 100 µM | > 100 µM | > 100 µM | > 100 µM | > 100 µM | > 100 µM | > 100 µM | > 100 µM | > 100 µM | > 100 µM | > 100 µM | > 100 µM | > 100 µM | > 100 µM | > 100 µM | > 100 µM | > 100 µM | > 100 µM |
| Cc1nc2ccccc2n1COC(Cn1ccnc1)c1ccc(Cl)cc1Cl (configuration not stated) | > 100 µM | > 100 µM | > 100 µM | > 100 µM | > 100 µM | > 100 µM | 85.4 µM | > 100 µM | > 100 µM | > 100 µM | > 100 µM | > 100 µM | > 100 µM | > 100 µM | 53.5 µM | > 100 µM | > 100 µM | > 100 µM | > 100 µM |
| CC(C)Cn1cnc2c(NCC(C)O)nc3ccccc3c21 (configuration not stated) | > 100 µM | > 100 µM | > 100 µM | > 100 µM | > 100 µM | > 100 µM | > 100 µM | > 100 µM | > 100 µM | > 100 µM | > 100 µM | > 100 µM | > 100 µM | > 100 µM | > 100 µM | > 100 µM | > 100 µM | > 100 µM | > 100 µM |
| C=CCN1C(=O)/C(=C/c2ccc(OC)cc2)N=C1SC/C=C/C | > 100 µM | > 100 µM | > 100 µM | > 100 µM | > 100 µM | > 100 µM | 54.4 µM | > 100 µM | > 100 µM | > 100 µM | > 100 µM | > 100 µM | 80.1 µM | > 100 µM | 39.4 µM | 80.6 µM | > 100 µM | > 100 µM | > 100 µM |
| O=C1CCC2C(O)c3cc4c(cc3C(c3ccc5c(c3)OCO5)N12)OCO4 (configuration not stated) | > 100 µM | > 100 µM | > 100 µM | > 100 µM | > 100 µM | > 100 µM | > 100 µM | 81.7 µM | > 100 µM | > 100 µM | > 100 µM | > 100 µM | > 100 µM | > 100 µM | > 100 µM | > 100 µM | 41.5 µM | > 100 µM | > 100 µM |
| CNc1ncnc2c1ncn2C1C=CC(COS(N)(=O)=O)C1 (configuration not stated) | > 100 µM | > 100 µM | > 100 µM | > 100 µM | > 100 µM | > 100 µM | > 100 µM | > 100 µM | > 100 µM | > 100 µM | > 100 µM | > 100 µM | > 100 µM | > 100 µM | > 100 µM | > 100 µM | > 100 µM | > 100 µM | > 100 µM |
| CCOC(CN(C)C(=O)Nc1cccc2ccccc12)OCC | > 10 µM | > 10 µM | > 10 µM | > 10 µM | > 10 µM | > 10 µM | > 10 µM | > 10 µM | > 10 µM | > 10 µM | > 10 µM | > 10 µM | > 10 µM | > 10 µM | > 10 µM | > 10 µM | > 10 µM | > 10 µM | > 10 µM |
| CCc1c2c([nH]c(=S)c1C#N)CCC2 | > 100 µM | > 100 µM | > 100 µM | > 100 µM | > 100 µM | > 100 µM | > 100 µM | > 100 µM | > 100 µM | > 100 µM | > 100 µM | > 100 µM | > 100 µM | > 100 µM | > 100 µM |  | > 100 µM | > 100 µM | > 100 µM |
| Cn1c2ccccc2c2c(-c3ccccc3)cc3c(c21)C(=O)C=CC3=O | 2.99 µM | 6.18 µM | 3.04 µM | 0.538 µM | 2.05 µM | > 8.05 µM | 1.1 µM | 9.62 µM | 3.4 µM | 3.81 µM | > 9.15 µM | 4.03 µM | 5.12 µM | > 10 µM | > 9.24 µM | 5.76 µM | > 9.66 µM | 2.21 µM | 3.37 µM |
| C=CCN1C(=O)/C(=C/c2ccco2)N=C1SC/C=C/C | > 100 µM | > 100 µM | > 100 µM | > 100 µM | > 100 µM | > 100 µM | 76 µM | > 100 µM | > 100 µM | > 100 µM | > 100 µM | > 100 µM | > 100 µM | > 100 µM | 44.3 µM | > 100 µM | > 100 µM | > 100 µM | > 100 µM |

From PubChem BioAssay (NCI)
